Results from patent publication US9926281B2 (priority 2014, dated 2018).
pIC50: −log10 of the molar value.

What was measured:
[1] = molecular target: human TACE (Homo sapiens (Human), UniProt P78536); details: read-out: TACE potency IC50
[2] = molecular target: rnADAMTS-5 (1-564-6H) (Rattus norvegicus, UniProt Q6TY19); details: read-out: Rat ADAMTS-5 potency IC50
[3] = molecular target: human ADAMTS-5 (Homo sapiens (Human), UniProt Q9UNA0); details: read-out: hADAMTS-5 potency IC50
Method: Finally, the fluorescence is read on the Envision (Perkin Elmer) after an incubation of 90 min at 37° C.

[4] = molecular target: human MMP13 (Homo sapiens (Human), UniProt P45452); details: read-out: hMMP-13 potency IC50
Method: Human MMP13 is preactivated by incubated the enzyme in the same buffer complemented with 1 mM freshly prepared p-Aminophenylmercuric acetate (AMPA) for 1 hour at 37° C.

Sequence of human ADAMTS-5 (Q9UNA0 262-930): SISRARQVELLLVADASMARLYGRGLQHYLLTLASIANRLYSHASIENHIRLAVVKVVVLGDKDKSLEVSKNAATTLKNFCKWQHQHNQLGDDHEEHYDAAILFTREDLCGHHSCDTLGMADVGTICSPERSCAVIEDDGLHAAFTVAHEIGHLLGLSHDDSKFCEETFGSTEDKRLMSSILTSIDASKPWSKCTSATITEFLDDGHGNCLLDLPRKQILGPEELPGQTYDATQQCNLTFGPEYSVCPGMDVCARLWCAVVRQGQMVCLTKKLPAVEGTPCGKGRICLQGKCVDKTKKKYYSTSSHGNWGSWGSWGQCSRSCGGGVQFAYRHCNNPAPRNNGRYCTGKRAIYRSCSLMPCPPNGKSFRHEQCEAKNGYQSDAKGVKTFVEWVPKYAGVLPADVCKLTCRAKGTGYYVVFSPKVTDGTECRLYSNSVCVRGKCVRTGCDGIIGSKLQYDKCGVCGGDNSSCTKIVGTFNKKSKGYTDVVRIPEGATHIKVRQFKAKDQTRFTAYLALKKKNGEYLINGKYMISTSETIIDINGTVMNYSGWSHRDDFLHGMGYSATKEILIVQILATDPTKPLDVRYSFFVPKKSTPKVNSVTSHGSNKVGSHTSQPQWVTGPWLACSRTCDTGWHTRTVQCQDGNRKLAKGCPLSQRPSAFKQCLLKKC
Sequence of human TACE (P78536 whole entry, looked up, change not shown): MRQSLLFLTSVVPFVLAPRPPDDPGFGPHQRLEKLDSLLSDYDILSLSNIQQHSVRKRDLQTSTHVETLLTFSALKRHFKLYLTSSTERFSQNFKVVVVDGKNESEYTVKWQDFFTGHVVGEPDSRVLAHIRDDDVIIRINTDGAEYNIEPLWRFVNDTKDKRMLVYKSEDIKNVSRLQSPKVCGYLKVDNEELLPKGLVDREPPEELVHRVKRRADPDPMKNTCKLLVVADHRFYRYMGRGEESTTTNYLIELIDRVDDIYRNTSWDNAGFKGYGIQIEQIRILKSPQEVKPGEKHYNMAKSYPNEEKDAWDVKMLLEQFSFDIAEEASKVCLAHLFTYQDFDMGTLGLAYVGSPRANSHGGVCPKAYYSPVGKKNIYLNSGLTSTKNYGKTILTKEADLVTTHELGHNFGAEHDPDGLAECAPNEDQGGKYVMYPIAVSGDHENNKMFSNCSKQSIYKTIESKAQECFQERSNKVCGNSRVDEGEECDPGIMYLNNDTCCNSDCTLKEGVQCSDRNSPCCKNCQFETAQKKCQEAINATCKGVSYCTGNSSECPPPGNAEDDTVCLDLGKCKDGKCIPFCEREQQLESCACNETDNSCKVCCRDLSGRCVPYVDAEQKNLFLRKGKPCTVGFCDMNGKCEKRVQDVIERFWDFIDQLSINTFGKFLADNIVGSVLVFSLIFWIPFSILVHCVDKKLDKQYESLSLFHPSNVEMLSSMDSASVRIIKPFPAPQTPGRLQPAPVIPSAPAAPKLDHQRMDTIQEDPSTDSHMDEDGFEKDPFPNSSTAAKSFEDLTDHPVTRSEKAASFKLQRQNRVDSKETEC

| SMILES | pIC50 [1] | pIC50 [2] | pIC50 [3] | pIC50 [4] |
| --- | --- | --- | --- | --- |
| C[C@@H](C[C@@]1(C)NC(=O)NC1=O)C(=O)N1CCN(c2ccc(F)c(Cl)c2)[C@@H](C)C1 [Cpd 265] | < 5.40 | 7.66 | 7.74 | – |
| Cc1c(Cl)cc(Cl)cc1N1CCN(C(=O)CCC2(C)NC(=O)NC2=O)C[C@@H]1C (stereo partly drawn) [compound 178, 5-[3-[(3S)-4-(3,5-dichloro-2-methyl-phenyl)-3-methyl-piperazin-1-yl]-3-oxo-propyl]-5-methyl-imidazolidine-2,4-dione] | – | 6.46 | 6.24 | – |
| O=C1NC(=O)C(CCC(=O)N2CCN(c3cccc(Cl)c3)CC2)(CNCc2ccccc2)N1 (stereo not drawn) [compound 184, 5-[(benzylamino)methyl]-5-[3-[4-(3-chlorophenyl)piperazin-1-yl]-3-oxo-propyl]imidazolidine-2,4-dione] | – | 6.55 | 6.57 | – |
| N#Cc1cccc(N2CCN(C(=O)CCC3(C4CC4)NC(=O)NC3=O)CC2)c1 (stereo not drawn) [compound 195, 3-[4-[3-(4-cyclopropyl-2,5-dioxo-imidazolidin-4-yl)propanoyl]piperazin-1-yl]benzonitrile] | – | 6.58 | 6.50 | – |
| CCC(CC1(C)NC(=O)NC1=O)C(=O)N1CCN(c2cc(Cl)cc(Cl)c2)CC1 (stereo not drawn) [compound 236, 5-[2-[4-(3,5-dichlorophenyl)piperazine-1-carbonyl]butyl]-5-methyl-imidazolidine-2,4-dione] | 6.65 | – | 7.82 | 5.91 |
| COC(CC1(C)NC(=O)NC1=O)C(=O)N1CCN(c2cccc(F)c2)[C@@H](C)C1 (stereo partly drawn) [compound 294, 5-[3-[(3S)-4-(3-fluorophenyl)-3-methyl-piperazin-1-yl]-2-methoxy-3-oxo-propyl]-5-methyl-imidazolidine-2,4-dione] | < 4.70 | 6.89 | 6.87 | – |
| C[C@H]1CN(C(=O)CCC2(C3CC3)NC(=O)NC2=O)CCN1c1ccc(Cl)c(Cl)c1 (stereo partly drawn) [compound 408, 5-cyclopropyl-5-(3-((S)-4-(3,4-dichlorophenyl)-3-methylpiperazin-1-yl)-3-oxopropyl)imidazolidine-2,4-dione] | < 5.40 | – | 7.72 | < 5.40 |
| CC(CC1(C2CC2)NC(=O)NC1=O)C(=O)N1CCN(c2cc(Cl)cc(Cl)c2)CC1 (stereo not drawn) [compound 409, 5-cyclopropyl-5-(3-(4-(3,5-dichlorophenyl)piperazin-1-yl)-2-methyl-3-oxopropyl)imidazolidine-2,4-dione] | 6.51 | – | 7.77 | 5.56 |
| CC(CC1(C)NC(=O)NC1=O)C(=O)N1CCN(c2cc(Cl)cc(Cl)c2)CC1 (stereo not drawn) [compound 410, 5-(3-(4-(3,5-dichlorophenyl)piperazin-1-yl)-2-methyl-3-oxopropyl)-5-methylimidazolidine-2,4-dione] | 6.77 | – | 7.66 | < 5.40 |
| CC(CC1(C2CC2)NC(=O)NC1=O)C(=O)N1CCN(c2ccc(F)c(Cl)c2)[C@@H](C)C1 (stereo partly drawn) [compound 411, 5-(3-((S)-4-(3-chloro-4-fluorophenyl)-3-methylpiperazin-1-yl)-2-methyl-3-oxopropyl)-5-cyclopropylimidazolidine-2,4-dione] | < 5.40 | – | 7.96 | 6.06 |
| CC(CC1(C2CC2)NC(=O)NC1=O)C(=O)N1CCN(c2ccc(Cl)cc2)[C@@H](C)C1 (stereo partly drawn) [compound 412, 5-(3-((S)-4-(4-chlorophenyl)-3-methylpiperazin-1-yl)-2-methyl-3-oxopropyl)-5-cyclopropylimidazolidine-2,4-dione] | < 4.70 | – | 7.89 | 6.36 |
| CC(CC1(C2CC2)NC(=O)NC1=O)C(=O)N1CCN(c2cc(F)cc(Cl)c2)[C@@H](C)C1 (stereo partly drawn) [compound 413, 5-(3-((S)-4-(3-chloro-5-fluorophenyl)-3-methylpiperazin-1-yl)-2-methyl-3-oxopropyl)-5-cyclopropylimidazolidine-2,4-dione] | < 5.40 | – | 7.96 | 6.02 |
| C[C@H]1CN(C(=O)CC[C@@]2(C)NC(=O)NC2=O)CCN1c1ccc(Cl)c(Cl)c1 [compound 414, (R)-5-(3-((S)-4-(3,4-dichlorophenyl)-3-methylpiperazin-1-yl)-3-oxopropyl)-5-methylimidazolidine-2,4-dione] | < 5.40 | – | 7.40 | < 5.40 |
| CC(CC1(COCc2ccccc2)NC(=O)NC1=O)C(=O)N1CCN(c2cc(Cl)cc(Cl)c2)CC1 (stereo not drawn) [compound 415, 5-(benzyloxymethyl)-5-(3-(4-(3,5-dichlorophenyl)piperazin-1-yl)-2-methyl-3-oxopropyl)imidazolidine-2,4-dione] | 6.40 | – | 7.55 | 5.89 |
| C[C@H]1CN(C(=O)CC[C@@]2(C3CC3)NC(=O)NC2=O)CCN1c1ccc(Cl)c(Cl)c1 [compound 416, 5-cyclopropyl-5-(3-((S)-4-(3,4-dichlorophenyl)-3-methylpiperazin-1-yl)-3-oxopropyl)imidazolidine-2,4-dione] | < 5.40 | – | 7.92 | 5.54 |
| CC(CC1(C)NC(=O)NC1=O)C(=O)N1CCN(c2cc(F)cc(Cl)c2)[C@@H](C)C1 (stereo partly drawn) [compound 418, 5-(3-((S)-4-(3-chloro-5-fluorophenyl)-3-methylpiperazin-1-yl)-2-methyl-3-oxopropyl)-5-methylimidazolidine-2,4-dione] | < 5.40 | – | 7.48 | < 5.40 |
| CC(CC1(C)NC(=O)NC1=O)C(=O)N1CCN(c2cc(Cl)cc(Cl)c2)[C@@H](C)C1 (stereo partly drawn) [compound 420, 5-(3-((S)-4-(3,5-dichlorophenyl)-3-methylpiperazin-1-yl)-2-methyl-3-oxopropyl)-5-methylimidazolidine-2,4-dione] | 5.53 | – | 7.49 | < 4.85 |
| CC(CC1(C)NC(=O)NC1=O)C(=O)N1CCN(c2ccc(F)c(Cl)c2)[C@@H](C)C1 (stereo partly drawn) [compound 422, 5-(3-((S)-4-(3-chloro-4-fluorophenyl)-3-methylpiperazin-1-yl)-2-methyl-3-oxopropyl)-5-methylimidazolidine-2,4-dione] | < 5.40 | – | 7.68 | 5.63 |
| Cc1c(Cl)cc(Cl)cc1N1CCN(C(=O)C(C)CC2(C)NC(=O)NC2=O)C[C@@H]1C (stereo partly drawn) [compound 423, 5-(3-((S)-4-(3,5-dichloro-2-methylphenyl)-3-methylpiperazin-1-yl)-2-methyl-3-oxopropyl)-5-methylimidazolidine-2,4-dione] | 5.83 | – | 7.24 | < 4.70 |
| CC1(CC(COCc2ccccc2)C(=O)N2CCN(c3cc(Cl)cc(Cl)c3)CC2)NC(=O)NC1=O (stereo not drawn) [compound 424, 5-(2-(benzyloxymethyl)-3-(4-(3,5-dichlorophenyl)piperazin-1-yl)-3-oxopropyl)-5-methylimidazolidine-2,4-dione] | < 4.97 | – | 7.28 | < 4.70 |
| CC1(CC(CO)C(=O)N2CCN(c3cc(Cl)cc(Cl)c3)CC2)NC(=O)NC1=O (stereo not drawn) [compound 425, 5-(3-(4-(3,5-dichlorophenyl)piperazin-1-yl)-2-(hydroxymethyl)-3-oxopropyl)-5-methylimidazolidine-2,4-dione] | 6.61 | – | 7.74 | < 5.40 |
| COCC1(CC(C)C(=O)N2CCN(c3cc(Cl)cc(Cl)c3)CC2)NC(=O)NC1=O (stereo not drawn) [compound 427, 5-(3-(4-(3,5-dichlorophenyl)piperazin-1-yl)-2-methyl-3-oxopropyl)-5-(methoxymethyl)imidazolidine-2,4-dione] | 6.47 | – | 7.70 | < 5.40 |
| COCC1(CC(C)C(=O)N2CCN(c3cc(Cl)cc(Cl)c3)[C@@H](C)C2)NC(=O)NC1=O (stereo partly drawn) [compound 429, 5-(3-((S)-4-(3,5-dichlorophenyl)-3-methylpiperazin-1-yl)-2-methyl-3-oxopropyl)-5-(methoxymethyl)imidazolidine-2,4-dione] | < 5.40 | – | 7.28 | < 4.70 |
| COCC1(CC(C)C(=O)N2CCN(c3cccc(Cl)c3C)CC2)NC(=O)NC1=O (stereo not drawn) [compound 433, 5-(3-(4-(3-chloro-2-methylphenyl)piperazin-1-yl)-2-methyl-3-oxopropyl)-5-(methoxymethyl)imidazolidine-2,4-dione] | 5.90 | – | 7.68 | < 4.70 |
| CC(CC1(c2ccccn2)NC(=O)NC1=O)C(=O)N1CCN(c2cc(Cl)cc(Cl)c2)CC1 (stereo not drawn) [compound 434, 5-(3-(4-(3,5-dichlorophenyl)piperazin-1-yl)-2-methyl-3-oxopropyl)-5-(pyridin-2-yl)imidazolidine-2,4-dione] | 6.97 | – | 7.70 | 6.12 |
| CCC(CC1(C)NC(=O)NC1=O)C(=O)N1CCN(c2cc(Cl)cc(Cl)c2)CC1 (stereo not drawn) [compound 435, 5-(2-(4-(3,5-dichlorophenyl)piperazine-1-carbonyl)butyl)-5-methylimidazolidine-2,4-dione] | 6.65 | – | 7.82 | 5.91 |
| COCC(CC1(C)NC(=O)NC1=O)C(=O)N1CCN(c2cc(Cl)cc(Cl)c2)CC1 (stereo not drawn) [compound 436, 5-(3-(4-(3,5-dichlorophenyl)piperazin-1-yl)-2-(methoxymethyl)-3-oxopropyl)-5-methylimidazolidine-2,4-dione] | 6.43 | – | 7.66 | < 5.40 |
| CC(C)C(CC1(C)NC(=O)NC1=O)C(=O)N1CCN(c2cc(Cl)cc(Cl)c2)CC1 (stereo not drawn) [compound 438, 5-(2-(4-(3,5-dichlorophenyl)piperazine-1-carbonyl)-3-methylbutyl)-5-methylimidazolidine-2,4-dione] | 5.89 | – | 7.25 | 5.73 |
| COC(CC1(C)NC(=O)NC1=O)C(=O)N1CCN(c2cc(Cl)cc(Cl)c2)CC1 (stereo not drawn) [compound 439, 5-(3-(4-(3,5-dichlorophenyl)piperazin-1-yl)-2-methoxy-3-oxopropyl)-5-methylimidazolidine-2,4-dione] | 6.10 | – | 7.37 | < 5.40 |
